Measured values taken from patent EP0964681B1, “ANTICONVULSANT DERIVATIVES USEFUL IN TREATING PSORIASIS” (Ortho-McNeil Pharmaceutical, Inc., priority 1996, dated 1998).
Where two headings read alike, the source gives them in different places.

How the values were obtained:
[1] = system: simple and complex partial seizures and secondarily generalized seizures; conditions: clinical trials; adjunctive therapy or monotherapy; cited from earlier work
[2] = system: keratinocytes; test: Keratinocyte differentiation measured by expression of transglutaminase-1 protein; type: cell-based
Experimental: In these studies, keratinocytes were grown in Medium154, a low calcium medium supplemented with bovine pituitary extract (BPE), bovine insulin, bovine transferrin, human epidermal growth factor (EGF) and hydrocortisone. Keratinocytes were grown to 60-80% confluence and subcultured by using trypsin/EDTA. The effect of topiramate on keratinocyte differentiation was measured by the expression of transglutaminase-1 protein after three days of treatment. Three separate experiments were performed. Differentiation was evaluated in both low calcium and high calcium incubation conditions. An increase in differentiation would be most readily observed under low calcium conditions whereas an inhibition of differentiation could be detected under conditions of high calcium-induced differentiation. […] A follow-up study was conducted which extended the incubation time to 5 days to look for further enhancement.

[3] = system: psoriatic lesions; test: Clinical studies of topiramate in epilepsy; patients who coincidentally had psoriasis; type: in vivo, human; conditions: reported by at least three epilepsy-trial patients who coincidentally had psoriasis
Experimental: The activity of the compounds of formula I in treating psoriasis was first evidenced in clinical studies conducted to evaluate the efficacy of topiramate in treating epilepsy. […] Therefore, preclinical in vitro studies were conducted to evaluate the effects of topiramate on keratinocyte function as a putative mechanism of action for its potential beneficial effects in treating psoriasis. One of the hallmarks of psoriatic lesions is hyperproliferative epidermal keratinocytes. In general, agents that affect the proliferation of keratinocytes have an inverse effect on differentiation, i.e. they would inhibit growth and enhance differentiation. Two measures of keratinocyte function were therefore evaluated: cell growth and differentiation.

[4] = system: keratinocytes; test: Keratinocyte cell growth induced by EGF and BPE; type: cell-based; conditions: six days of treatment
Experimental: In these studies, keratinocytes were grown in Medium154, a low calcium medium supplemented with bovine pituitary extract (BPE), bovine insulin, bovine transferrin, human epidermal growth factor (EGF) and hydrocortisone. Keratinocytes were grown to 60-80% confluence and subcultured by using trypsin/EDTA. Four separate experiments were performed to evaluate the dose-dependent effect of topiramate on keratinocyte cell growth as measured by […] after six days of treatment. Topiramate was dissolved in DMSO to make a 100 mM stock solution. In all experiments the final concentration of DMSO in the cell incubation medium was 0.1%. Vehicle controls (0.1% DMSO) were included in each experiment. Cell growth was induced by a combination of the growth factors EGF and BPE.

[5] = system: seizures; conditions: animal model of kindled epilepsy; cited from earlier work
[6] = system: seizures; conditions: several rodent models of epilepsy; cited from earlier work

transglutaminase-1 protein ([2]; follow-up study, incubation time extended to 5 days): No additional increases
transglutaminase-1 protein ([2]; high calcium incubation conditions, three days of treatment): modest increase
transglutaminase-1 protein ([2]; low calcium incubation conditions, three days of treatment): modest increase
Structure (SMILES): CC1(C)O[C@@H]2[C@@H](CO[C@@]3(COS(N)(=O)=O)OC(C)(C)O[C@@H]23)O1 [topiramate, 2,3:4,5-bis-O-(1-methylethylidene)-β-D-fructopyranose sulfamate]
efficacy in treating simple and complex partial seizures and secondarily generalized seizures [1]: effective as adjunctive therapy or as monotherapy
psoriatic lesions [3]: marked reduction in the psoriatic lesions
Emax at 10 µM ([4]; Keratinocyte, 144 h, 10 micromolar, growth induced by EGF and BPE, four experiments, not statistically significant (p>0.05), read-out: inhibition of cell growth (maximal response)): 32 ± 10%
dose dependence of the effect on keratinocyte cell growth ([4]; four experiments): no dose dependence was observed
effect on keratinocyte cell growth ([4]; growth induced by EGF and BPE, 0.1% DMSO): modest inhibitory effect
block of seizures [5]: effectively block seizures
block of seizures [6]: effectively block seizures
